Assays:
[1] = tested on: anti-OVA-specific IgG1 subclass antibody; experiment: Adjuvant activity: anti-OVA-specific IgG1 subclass antibody in serum after secondary immunization (Examples 1, 5, 7, 8; ELISA absorbance); type: in vivo, BALB/c mice; conditions: Example 7
Description: (§1) Two weeks from the secondary immunization, the whole blood was extracted under anesthesia, and the obtained serum sample was measured for anti-OVA-specific IgG1 subclass antibody.
A method for measurement of the anti-OVA-specific IgG1 subclass antibody in Example 1, and the following Examples 5, 7 and 8 is as follows.
Measurement Method of anti-OVA-specific IgG1 Subclass Antibody
(§2) To a 96 well plate was added 5 μg/ml OVA at 100 μl/well, and the mixture was incubated at 4° C. overnight. After incubation, the mixture was washed three times with 200 μl of PBS-T (PBS+0.05%(v/v) Tween 20) per well, and blocked with 100 μl of 5% FCS/PBS solution per well at room temperature for 1 to 2 hr. Thereafter, the mixture was washed three times with PBS-T (200 μl/well), a diluted serum sample (100 μl/well) or the same amount of 5% FCS/PBS solution as a control was added, and the mixture was incubated at 37° C. for 1 hr. Thereafter, the mixture was washed five times with PBS-T (200 μl/well), a diluted biotinylated anti-mouse IgG1 antibody (100 μl/well) was added, and the mixture was incubated at 37° C. for 45 min. Thereafter, the mixture was washed five times with PBS-T (200 μl/well), a diluted anti-biotin-HRP antibody was added (100 μl/well), and the mixture was incubated at 37° C. for another 30 min. Thereafter, the mixture was washed five times with PBS-T (200 μl/well), TMB substrate solution was added (100 μl/well), and the mixture was incubated at room temperature for 10 to 15 min. Thereafter, a reaction quenching liquid (2N sulfuric acid solution) was added (50 μl/well) to discontinue a color developing reaction, and the absorbance (OD Value=450 nm) was measured by a microplate reader.

[2] = tested on: anti-OVA-specific IgE antibody; conditions: mouse, in vivo
Description: The serum sample obtained in Example 1 was measured for an anti-OVA-specific IgE antibody. The measurement method of the anti-OVA-specific IgE antibody in Example 3 and Examples 6, 9 is as follows.
Measurement Method of anti-OVA-specific IgE Antibody
DS mouse IgE ELISA (OVA) kit manufactured by DS Pharma Biomedical Co., Ltd. was used. The protocol is briefly shown below.
The serum sample and a standard reagent for drawing an analytical curve are diluted with a buffer and, after stirring, left standing at room temperature for 10 min. The sample and the standard solution are added to a plate bound with an IgE capture antibody in advance and, after stirring, the mixture is left standing at room temperature for 60 min. The mixture is washed three times with wash, HRP-labeled OVA is added, and the mixture is left standing at room temperature for 30 min. The mixture is washed three times with wash, a substrate solution is added, and the mixture is left standing in dark at room temperature for 30 min. A reaction quenching liquid is added, the mixture is stirred, and the absorbance (OD Value=450 nm) is immediately measured.
This test was performed in the same manner as in Example 3 except that N^2-hexadecanoyl-L-arginine (SZ61), N-hexadecanoylagmatine (SZ62), N^2-hexadecanoyl-L-arginine methyl ester hydrochloride (SZ63), N^2-octadecanoyl-L-glutamine tert-butyl ester (SZ64), and N^2-octadecanoyl-L-glutamine (SZ65) were used.
This test was performed in the same manner as in Example 6 except that N-hexadecanoylagmatine (SZ62), N^2-octadecanoyl-L-glutamine tert-butyl ester (SZ64), N-docosanoyl-L-leucine methyl ester (SZ70), and N-docosanoyl-L-phenylalanine methyl ester (SZ71) were used and a positive control adjuvant Addavax™ (InvivoGen) administration group was formed.
The allergy inducing activity test was performed in the same manner as in Example 3 except that Addavax™, N-(2-octadecyleicosanoyl)-L-leucine methyl ester (SZ86), N-hexadecanoyl-L-leucinamide (SZ90), N^2-hexadecanoyl-N^1,N^1-diethyl-L-leucinamide (SZ92), N^2-hexadecanoyl-L-arginine hexyl ester hydrochloride (SZ99) and N^2-docosanoyl-N^1,N^1-diethyl-L-glutamic acid 1-amide (SZ106) were used.
The allergy inducing activity test was performed in the same manner as in Example 3 except that Addavax™, N-(2-octadecyleicosanoyl)-L-leucine methyl ester (SZ86), N-hexadecanoyl-L-leucinamide (SZ90), N^2-hexadecanoyl-N^1,N^1-diethyl-L-leucinamide (SZ92), N-hexadecanoyl-L-leucine hexyl ester (SZ97), N^2-docosanoyl-N^1,N^1-diethyl-L-glutamic acid 1-amide (SZ106) and N-docosanoylagmatine hydrochloride (SZ108) were used.
8-Week-old female BALB/c mice were divided into groups (N=6), and each group was primarily immunized by dorsal-subcutaneous administration of (1) ovalbumin (OVA) (5 μg) dissolved in saline as an antigen (OVA single administration group), (2) OVA (10 μg) and aluminum hydroxide salt dissolved in saline (Alum administration group), (3) OVA 10 μg and Addavax™ (mixed with saline at 1:1) dissolved in saline (Addavax™ administration group), (4) OVA 10 μg and CpG 5 μg dissolved in saline (CpG administration group), (5) OVA 10 μg and MPL 5 μg dissolved in saline (MPL administration group), (6) OVA (5 μg) and SZ62 (0.256 μmol) dissolved or dispersed in 5% αCD-added saline (SZ62 administration group), (7) OVA (5 μg), SZ62 (0.256 μmol) and CpG 5 μg dissolved or dispersed in 5% αCD-added saline (SZ62+CpG administration group), (8) OVA 10 μg, Addavax™ (mixed with saline at 1:1) and CpG 5 μg dissolved in saline (Addavax™+CpG administration group), (9) OVA (5 μg), SZ62 (0.256 μmol) and MPL 5 μg dissolved or dispersed in 5% αCD-added saline (SZ62+MPL administration group), (10) OVA (10 μg), aluminum hydroxide salt (Alum) and MPL 5 μg dissolved in saline (Alum+MPL administration group), each per mouse. One week later, the secondary immunization was carried out by dorsal-subcutaneous administration of solutions or dispersions similar to those of the above-mentioned (1) to (10) again.

IFN-γ = experiment: Th1 response: IFN-γ production from lymph node cells of immunized mice restimulated with OVA; type: in vivo, BALB/c mice; conditions: Example 10; s.c. OVA 10 μg + 0.256 μmol in 5% αCD saline (Addavax 1:1); groin lymph node ten days later; 0.1-100 μg OVA, 40 hr, ELISA
Description: (§3) Ten days later, groin lymph node was collected from all mice of the above-mentioned (1) to (4), lymph node cells were isolated and cultured in 10% FBS-containing RPMI1640 medium. Thereto was added 0.1 μg, 1 μg, 10 μg, 100 μg of OVA, respectively, 40 hr later, cell supernatant was recovered, and IFN-γ and IL-4 in the supernatant were measured by ELISA.

IL-4 = experiment: Th2 response: IL-4 production from lymph node cells of immunized mice restimulated with OVA; type: in vivo, BALB/c mice; conditions: Example 10; s.c. OVA 10 μg + 0.256 μmol in 5% αCD saline (Addavax 1:1); groin lymph node ten days later; 0.1-100 μg OVA, 40 hr, ELISA
Description: as §3

[3] = tested on: anti-OVA-specific IgG2a subclass antibody; experiment: Adjuvant activity: anti-OVA-specific IgG2a subclass antibody in serum after secondary immunization; type: in vivo, BALB/c mice; conditions: Example 21; s.c.; SZ62 0.256 μmol in 5% αCD saline, CpG 5 μg, MPL 5 μg, Addavax 1:1, Alum; two weeks from secondary immunization
Description: as §1
Measurement Method of anti-OVA-specific IgG2a Subclass Antibody
as §2, with “IgG2a” for “IgG1”, “10-15” for “10 to 15”
Measurement Method of Concentration of anti-OVA-specific IgG1 Subclass Antibody and anti-OVA-specific IgG2a Subclass Antibody
To a 96 well plate was added 5 μg/ml OVA at 100 μl/well, and the mixture was incubated at 4° C. overnight. After incubation, the mixture was washed three times with 200 μl of PBS-T (PBS+0.05% (v/v) Tween 20) per well, and blocked with 100 μl of 5% FCS/PBS solution per well at room temperature for 1 to for 2 hr. […] When an anti-OVA-specific IgG2a subclass antibody was measured, the standard of an anti-OVA-specific IgG2a subclass antibody was added at 50 ng/ml, 25 ng/ml, 12,5 ng/ml, 6.25 ng/ml, 3.125 ng/ml, 1.56 ng/ml, 0.781 ng/ml, 0.391 ng/ml, 0.195 ng/ml, 0.098 ng/ml, 0.049 ng/ml, 0 ng/ml, per 1 well. […] Thereafter, a reaction quenching liquid (2N sulfuric acid solution) was added (50 μl/well) to discontinue a color developing reaction, and the absorbance (OD Value=450 nm) was measured by a microplate reader. A standard curve was drawn from the measured OD values, and the concentration was calculated.

[4] = tested on: anti-OVA-specific IgG1 subclass antibody; experiment: Adjuvant activity: anti-OVA-specific IgG1 subclass antibody in serum after secondary immunization (Examples 12, 19, 20, 21); type: in vivo, BALB/c mice; conditions: Example 21; s.c.; SZ62 0.256 μmol in 5% αCD saline, CpG 5 μg, MPL 5 μg, Addavax 1:1, Alum; two weeks from secondary immunization

Compound	adjuvant activity (IgG1) compared with Alum [1]	anti-OVA-specific IgG1 subclass antibody production as compared to the OVA single administration group ([1]; same manner as Example 1, plus Addavax group)	allergy inducing activity as compared to aluminum hydroxide gel adjuvant and Addavax [2]	IFN-γ production from lymph node cells (IFN-γ)	IL-4 production from lymph node cells (IL-4)	anti-OVA-specific IgG2a subclass antibody production as compared to the OVA single administration group [3]	anti-OVA-specific IgG1 subclass antibody production as compared to the OVA single administration group [4]
CCCCCCCCCCCCCCCCCCCCCC(=O)N[C@@H](CC(C)C)C(=O)OC [SZ70, N-docosanoyl-L-leucine methyl ester]	equivalent to or not less than that of Alum	significantly increased	lower allergy inducing activity	increased in an OVA volume dependent manner	did not show an increase		
monophosphoryl lipid [MPL, reference compound]						tended to increase	significantly increased

Reference: US20180243421A1, “IMMUNOSTIMULATING AGENT” (AJINOMOTO CO., INC., priority 2015, published 2018)
